Reference: publication PMC5571739 (Journal of neuro-oncology, 2016)
Values joined by “and” are separate entries in the source; they are usually repeats but may differ in a detail not shown here. Equal values may be shown once.

Experiments:
[1] = test system: patients with recurrent malignant gliomas
[2] = Plasma pharmacokinetics of RO4929097 alone and with bevacizumab; assay type: in vivo, human; details: for AUC24: plasma, geometric mean; for AUC24 Δ% / Cmax Δ%: day 15 with bevacizumab vs day 1 alone
[3] = test system: hepatic CYP450 enzyme system; details: cited from earlier work

Row | Compound | Definitive maximum tolerated dose ([1]; in combination with bevacizumab, drug production halted) | Recommended phase II dose ([1]; orally 3 days on/4 days off each week in combination with bevacizumab) | AUC24 ([2]; 5 mg oral, day 1, no concurrent bevacizumab) | AUC24 ([2]; 5 mg oral, day 15, concurrent bevacizumab) | AUC24 Δ% ([2]; 5 mg) | AUC24 ([2]; 10 mg oral, day 1, no concurrent bevacizumab) | AUC24 Δ% ([2]; 10 mg) | Cmax Δ% ([2]; 10 mg) | AUC24 ([2]; 20 mg oral, day 1, no concurrent bevacizumab) | AUC24 ([2]; 20 mg oral, day 15, concurrent bevacizumab) | AUC24 Δ% ([2]; 20 mg) | Cmax Δ% ([2]; 20 mg) | Dose proportionality of mean Cmax ([2]; escalation of the dose from 5 to 20 mg) | Substrate or modulator of hepatic CYP450 enzyme system [3]
1 | CC(C)(C(=O)NCC(F)(F)C(F)(F)F)C(=O)N[C@@H]1C(=O)Nc2ccccc2-c2ccccc21 [RO4929097] | not identified | 10 mg/kg | 1,215 ng●h/mL | 1,212 ng●h/mL | −0.2% | 2,385 ± 606 ng●h/mL and 2,385 ng●h/mL | −1.5% | 7.0% | 2,232 ± 781 ng●h/mL and 2,232 ng●h/mL | 2,555 ng●h/mL | 14.5% | 1.9% | increased less than proportionately | –
2 | Bevacizumab: monoclonal antibody directed against vascular endothelial growth factor | – | – | – | – | – | – | – | – | – | – | – | – | – | not a substrate or modulator
